Assay results as given in patent publication US10939684B2, “Preparation of sulfonamide-containing antimicrobials and substrate treating compositions of sulfonamide-containing antimicrobials” (NANO SAFE COATINGS INCORPORATED, priority 2015, dated 2021).
Entries after “also recorded” stand apart in the source; their conditions may differ.

Test system: Arthrobacter spp.
Experiment: Large-droplet inoculation method, antimicrobial efficacy at solid-air interfaces
Type: cell-based
Settings: for Average: average of A-C; for A (cfu): replicate A; for B (cfu): replicate B; for C (cfu): replicate C
Description: Large-droplet inoculation method (Ronan E. et al, Biofouling 2013, 29, 1087-1096) Many pathogens are able to remain viable during extended periods of desiccation on inanimate surfaces. Long-term survival of pathogens in the inanimate environment pose a significant risk for infection transmission and contamination in high-risk environments such as hospital rooms or food-processing plants. The large-droplet inoculation method was developed to simulate the deposition of bacterial species onto exposed surfaces and to determine the ability of these cells to survive desiccation.
For these tests, small surface coupons were first coated with the antimicrobial using the method described above. Bacterial test species were grown overnight in a shaking incubator and cultures
were washed twice to replace the growth media with sterile water. 100 μL aliquots of the prepared culture were then inoculated onto multiple coated surfaces and allowed to air-dry within a biological safety cabinet. Drying typically occurred 2-3 hours after inoculation, and surviving cells were enumerated immediately and 24 hours after drying. For enumeration, inoculated coupons were sacrificed in triplicate and placed inside separate tubes containing 5 mL of a 0.9% saline collection liquid. Each coupon was agitated vigorously for 1 minute with a bench-top vortex to transfer cells from the test surface to the collection liquid. Plate counts were then performed on serial dilutions of the collection liquid, and colony counts from triplicate treated surfaces were averaged and compared to colony counts from tests of untreated control surfaces carried out in parallel.
A range of bacterial species were used in these tests. Arthrobacter spp., a gram-positive lab strain originally isolated from indoor air was used in the bulk of the testing, as it is known to be highly resistant to desiccation and therefore was used as a model for desiccation-tolerant pathogens. Efficacy tests were also carried out against, for example, gram-negative Escherichia coli (E. coli) and gram-positive Staphylococcus aureus (S. aureus), since they all contain pathogenic strains and have been implicated in major nosocomial outbreaks. […] The following are the tabulated bacterial reduction data: […]

[1] = treated cotton, compared to untreated control (FIG. 3, FIG. 4)
[2] = treated cotton, 3 hours, load 6.10E+07
[3] = treated cotton, 24 hours, load 6.10E+07
[4] = treated polyethylene, 3 hours, load 2.70E+07
[5] = treated polyethylene, 24 hours, load 2.70E+07
[6] = treated cotton, 3 hours, load 1.28E+08
[7] = treated cotton, 3 hours, load 4.04E+07
[8] = treated cotton, 24 hours, load 1.28E+08
[9] = treated cotton, 24 hours, load 4.04E+07

Structure (SMILES): C[N+](C)(CCCNS(=O)(=O)c1cccc2ccccc12)CCCOc1ccc(C(=O)c2ccccc2)cc1.[Br-] [3-(4-benzoylphenoxy)-N,N-dimethyl-N-(3-(naphthalene-1-sulfonamido)propyl)propan-1-aminium bromide]
- activity against Arthrobacter spp. (in words) (treated polyethylene coupons, compared to untreated control (FIG. 5)): excellent activity

Structure (SMILES): CO[Si](CCC[N+](C)(C)CCCNS(=O)(=O)c1ccccc1)(OC)OC.[Cl-] [Example 1a, N,N-dimethyl-3-(phenylsulfonamido)-N-(3-(trimethoxysilyl)propyl)propan-1-aminium chloride]
- activity against Arthrobacter spp. (in words) [1]: eradicated within three hours; also recorded: excellent activity
- Average [2]: 0.00E+00 cfu
- A (cfu) [2]: 0.00E+00 cfu
- B (cfu) [2]: 0.00E+00 cfu
- C (cfu) [2]: 0.00E+00 cfu
- Average [3]: 0.00E+00 cfu
- A (cfu) [3]: 0.00E+00 cfu
- B (cfu) [3]: 0.00E+00 cfu
- C (cfu) [3]: 0.00E+00 cfu

Structure (SMILES): C[N+](C)(CCCNS(=O)(=O)c1ccccc1)CCCOc1ccc(C(=O)c2ccccc2)cc1.[Br-] [Example 1c, 3-(4-benzoylphenoxy)-N,N-dimethyl-N-(3-(phenylsulfonamido)propyl) propan-1-aminium bromide]
- activity against Arthrobacter spp. (in words) (treated polyethylene coupons, compared to untreated control (FIG. 5), listed as 3-(4-benzoylphenoxy)-N,N-dimethyl-N-(3-(phenyl sulfonamido)propyl)propan- 1-amin): excellent activity
- activity against Arthrobacter spp. (in words) (treated polyethylene coupons, compared to untreated control (FIG. 5), listed as 3-(4-benzoylphenoxy)-N,N-dimethyl-N-(3-(phenylsulfonamido)propyl)propan-1-aminiu): eradicated within three hours
- Average [4]: 0.00E+00 cfu
- A (cfu) [4]: 0.00E+00 cfu
- B (cfu) [4]: 0.00E+00 cfu
- C (cfu) [4]: 0.00E+00 cfu
- Average [5]: 0.00E+00 cfu
- A (cfu) [5]: 0.00E+00 cfu
- B (cfu) [5]: 0.00E+00 cfu
- C (cfu) [5]: 0.00E+00 cfu

Structure (SMILES): CO[Si](CCC[N+](C)(C)CCCNS(=O)(=O)c1ccc(C)cc1)(OC)OC.[Cl-] [Example 2a, N,N-dimethyl-3-(4-methylphenylsulfonamido)-N-(3-(trimethoxysilyl)propyl) propan-1-aminium chloride]
- activity against Arthrobacter spp. (in words) (treated cotton, compared to untreated control (FIG. 3, FIG. 4), listed as N,N-dimethyl-3-(4-methylphenyl sulfonamido)-N-(3-(trimethoxysilyl)propyl)propan-): excellent activity
- activity against Arthrobacter spp. (in words) (treated cotton, compared to untreated control (FIG. 3, FIG. 4), listed as N,N-dimethyl-3-(4-methylphenylsulfonamido)-N-(3-(trimethoxysilyl) propyl)propan-): excellent activity
- activity against Arthrobacter spp. (in words) (treated cotton, compared to untreated control (FIG. 3, FIG. 4), listed as N,N-dimethyl-3-(4-methylphenylsulfonamido)-N-(3-(trimethoxysilyl)propyl)propan-1): eradicated within three hours
- Average [6]: 0.00E+00 cfu
- A (cfu) [6]: 0.00E+00 cfu
- B (cfu) [6]: 0.00E+00 cfu
- C (cfu) [6]: 0.00E+00 cfu
- Average [7]: 0.00E+00 cfu
- A (cfu) [7]: 0.00E+00 cfu
- B (cfu) [7]: 0.00E+00 cfu
- C (cfu) [7]: 0.00E+00 cfu
- Average [8]: 0.00E+00 cfu
- A (cfu) [8]: 0.00E+00 cfu
- B (cfu) [8]: 0.00E+00 cfu
- C (cfu) [8]: 0.00E+00 cfu
- Average [9]: 0.00E+00 cfu
- A (cfu) [9]: 0.00E+00 cfu
- B (cfu) [9]: 0.00E+00 cfu
- C (cfu) [9]: 0.00E+00 cfu

Structure (SMILES): CO[Si](CCC[N+](C)(C)CCCNS(=O)(=O)c1c(C)cc(C)cc1C)(OC)OC.[Cl-] [Example 3a, N,N-dimethyl-3-(trimethoxysilyl)-N-(3-(2,4,6-trimethylphenylsulfonamido)propyl)propan-1-aminium chloride]
- activity against Arthrobacter spp. (in words) (treated cotton, compared to untreated control (FIG. 3, FIG. 4), listed as N,N-dimethyl-3-(trimethoxysilyl)-N-(3-(2,4,6-trimethyl phenylsulfonamido)propyl)): excellent activity
- activity against Arthrobacter spp. (in words) (treated cotton, compared to untreated control (FIG. 3, FIG. 4), listed as N,N-dimethyl-3-(trimethoxysilyl)-N-(3-(2,4,6-trimethylphenylsulfonamido)propyl)p): eradicated within three hours
- Average [7]: 0.00E+00 cfu
- A (cfu) [7]: 0.00E+00 cfu
- B (cfu) [7]: 0.00E+00 cfu
- C (cfu) [7]: 0.00E+00 cfu
- Average [9]: 0.00E+00 cfu
- A (cfu) [9]: 0.00E+00 cfu
- B (cfu) [9]: 0.00E+00 cfu
- C (cfu) [9]: 0.00E+00 cfu

Structure (SMILES): CO[Si](CCC[N+](C)(C)CCCNS(=O)(=O)c1cccc2ccccc12)(OC)OC.[Cl-] [Example 5a, N,N-dimethyl-3-(naphthalene-1-sulfonamido)-N-(3-(trimethoxysilyl)propyl)propan-1-aminium chloride]
- activity against Arthrobacter spp. (in words) [1]: eradicated within three hours; also recorded: excellent activity
- Average [2]: 0.00E+00 cfu
- A (cfu) [2]: 0.00E+00 cfu
- B (cfu) [2]: 0.00E+00 cfu
- C (cfu) [2]: 0.00E+00 cfu
- Average [3]: 0.00E+00 cfu
- A (cfu) [3]: 0.00E+00 cfu
- B (cfu) [3]: 0.00E+00 cfu
- C (cfu) [3]: 0.00E+00 cfu

Structure (SMILES): C[N+](C)(CCCNS(=O)(=O)c1cccc2ccccc12)CCCOc1ccc(C(=O)c2ccccc2)cc1.[Br-] [Example 5c, 3-(4-benzoylphenoxy)-N,N-dimethyl-N-(3-(naphthalene-1-sulfonamido)propyl)propan-1-aminium bromide]
- activity against Arthrobacter spp. (in words) (treated polyethylene coupons, compared to untreated control (FIG. 5), listed as 3-(4-benzoylphenoxy)-N,N-dimethyl-N-(3-(naphthalene-1-sulfonamido)propyl)propan-): eradicated within three hours
- Average [4]: 0.00E+00 cfu
- A (cfu) [4]: 0.00E+00 cfu
- B (cfu) [4]: 0.00E+00 cfu
- C (cfu) [4]: 0.00E+00 cfu
- Average [5]: 0.00E+00 cfu
- A (cfu) [5]: 0.00E+00 cfu
- B (cfu) [5]: 0.00E+00 cfu
- C (cfu) [5]: 0.00E+00 cfu
